# Source: US6930075B1, “Fatty acid-based herbicidal composition” (priority 1990, dated 2005)
# Tests used:
# Test in all cases: Greenhouse post-emergence spray, plant damage rating
# Type in all cases: in vivo
# Avena sativa (oats) = conditions: A. sativa, alone and combined
# Protocol: (§1) Three species of weed, used in each test: Hypochoeris radicata (false dandelion), Sinapis, arvensis (wild mustard), and Avena sativa (oats), were grown in a greenhouse facility in 5.5 cm square pots using a potting soil mix comprising peat, vermiculite, sand, and 4-10-10 fertilizer. Water-soluble 20-20-20 fertilizer was used as a supplement for the plants as required. The plants were selected for use based on uniformity and quality and were potted separately. One plant per pot each of H. radicata (6–10 leaves) and S. arvensis (4–6 leaves) were used. Six to eight plants of A. sativa (2–4 leaves) were used per pot. After spraying with a herbicidal composition (as described below) the pots were arranged in a randomized complete block design in sub-irrigated watering trays. Six to ten replicates (pots) were used per treatment.
# (§2) Herbicidal treatments were applied using a spray chamber fitted with a TeeJet 8006E flat fan nozzle (available from Spraying Systems Co., Wheaton, Ill.), calibrated to spray at a volume of 60 gpa at 40 psi. Treatment solutions were freshly prepared for each experiment. Plant damage was assessed at 10 to 14 days after treatment using a pre-transformed 0–10 rating scale (0 representing no damage, 10 representing plant death) in accordance with the procedure outlined in Statistical Methods in Agricultural Research, Little, T. M. et al, J. Wiley and Sons, 1975, pp. 119–120, 218.
# [1] = test system: Sinapis arvensis (wild mustard); conditions: S. arvensis, alone and combined
# Protocol: as §1, §2
# [2] = test system: Hypochoeris radicata (false dandelion); conditions: H. radicata, alone and combined
# Protocol: as §1, §2
# [3] = Table 3 set 1: Round-Up 0.1%, Potassium pelargonate 0.1%
# [4] = Table 3 set 2: Round-Up 0.1%, Potassium pelargonate 0.5%
# [5] = Table 3 set 3: Round-Up 0.1%, Potassium pelargonate 0.5% (so in the source)
smiles,measurement,setting,value
CCCCCCCCC(=O)[O-].[K+] [Potassium pelargonate],Phytotoxicity (%) Observed,Avena sativa (oats); [3],6%
same,Phytotoxicity (%) Observed,Avena sativa (oats); [4],5%
same,Phytotoxicity (%) Observed,Avena sativa (oats); [5],7%
same,Phytotoxicity (%) Observed,[1]; [3],0%
same,Phytotoxicity (%) Observed,[1]; [4],0%
same,Phytotoxicity (%) Observed,[1]; [5],2%
same,Phytotoxicity (%) Observed,[2]; [3],0%
same,Phytotoxicity (%) Observed,[2]; [4],0%
same,Phytotoxicity (%) Observed,[2]; [5],3%
